Measurements taken from ChEMBL document CHEMBL5131425, “Microbial transformation and inhibitory effect assessment of uvaol derivates against LPS and HMGB1 induced NO production in RAW264.7 macrophages” (Bioorg Med Chem Lett, 2022).
pIC50: −log10 of the molar value.

Assays:
[1] = tested on: RAW264.7; test: Anti-inflammatory activity in mouse RAW264.7 cells assessed as inhibition of HMGB1-induced NO production; format: functional, cell-based
[2] = Cytotoxicity against mouse RAW264.7 cells assessed as cell viability at 50 uM; format: toxicity, cell-based; details: read-out: Activity
[3] = tested on: RAW264.7; test: Anti-inflammatory activity in mouse RAW264.7 cells assessed as inhibition of LPS-induced NO production; format: functional, cell-based

Row | Structure (SMILES) | pIC50 [1] | viability at 50 µM [2] [%] | pIC50 [3]
1 | C[C@H]1[C@H](C)[C@@H](O)C[C@@]23CC[C@@]4(C)[C@@]5(C)[C@H](C=C[C@]4(OC2)[C@H]13)[C@@]1(C)CC[C@H](O)C(C)(C)[C@@H]1C[C@@H]5O | 4.33 | 94.2 | 5.32
2 | C[C@H]1[C@H](C)[C@@H](O)C[C@]2(CO)CC[C@]3(C)C(=CC[C@@H]4[C@@]5(C)CC[C@H](O)C(C)(C)[C@@H]5C[C@H](O)[C@]43C)[C@H]12 | < 4.00 | 94.2 | 5.65
3 | C[C@@H]1[C@H]2C3=CC[C@@H]4[C@@]5(C)CC[C@H](O)[C@@](C)(CO)[C@@H]5CC[C@@]4(C)[C@]3(C)CC[C@@]2(CO)[C@@H](O)C[C@H]1C(=O)O | 4.22 | 118 | 4.52
4 | C[C@H]1[C@H](C(=O)O)[C@@H](O)C[C@]2(CO)CC[C@]3(C)C(=CC[C@@H]4[C@@]5(C)CC[C@H](O)[C@](C)(CO)[C@@H]5CC[C@]43C)[C@H]12 | 4.04 | 112 | 6.26
5 | C[C@H]1[C@H](C(=O)O)[C@@H](O)C[C@]2(CO)CC[C@]3(C)C(=CC[C@@H]4[C@@]5(C)CC[C@H](O)[C@@](C)(CO)[C@@H]5CC[C@]43C)[C@H]12 | < 4.00 | 124 | < 4.00
6 | C[C@@H]1[C@H]2C3=CC[C@@H]4[C@@]5(C)CC[C@H](O)[C@](C)(CO)[C@@H]5CC[C@@]4(C)[C@]3(C)CC[C@@]2(CO)[C@@H](O)C[C@H]1C(=O)O | 4.00 | 117 | < 4.00
7 | CC1(C)[C@@H](OC(=O)CCC(=O)O)CC[C@]2(C)[C@H]3C(=O)C=C4[C@@H]5C[C@@](C)(C(=O)O)CC[C@]5(C)CC[C@@]4(C)[C@]3(C)CC[C@@H]12 [CARBENOXOLONE] | 5.12 | 88.5 | 5.18
8 | C[C@H]1[C@H](C)CC[C@]2(CO)CC[C@]3(C)C(=CC[C@@H]4[C@@]5(C)CC[C@H](O)C(C)(C)[C@@H]5CC[C@]43C)[C@H]12 [UVAOL] | < 4.00 | 103 | < 4.00
